Test results as given in patent publication EP0804206B1, “ANTIFUNGAL AGENT CONTAINING CROTAMITON, AND SALICYCLIC ALDEHYDE” (Pierre Fabre Dermo-Cosmetique, priority 1995, dated 1996).

Test system: Trichophyton mentagrophytes n° 8611
Experiment: Minimal fungistatic concentration (CMF) of the products alone and combined, with FIC index
Type: cell-based
From the text: La synergie peut être mise-en évidence par le calcul des index FIC (Fractional Inhibitory Concentration) ou FBC (Fractional Bactericidal Concentration) des produits. Pour cela, on mesure la valeur de la CMF (ou concentration minimale fongistatique), ou de la CMϕ (ou concentration minimale fongicide), des principes actifs à tester vis-à-vis d'un type de germe.
Le FIC d'un produit A est défini comme : FICA (CMF du produit A en association)/(CMF du produit A seul) [formula]
L'association de deux antifongiques A et B est synergique si la somme FIC des rapports (FICA + FICB) est inférieure ou égale à 0,75.
On considère qu'il y a simple additivité pour des valeurs de FIC comprises entre 0,75 et 1,1, et indifférence dans l'intervalle compris entre 1,1 et 2; au-delà, l'association est notée antagoniste.
Après détermination des niveaux de concentrations minimales inhibitrices pour chaque souche, les associations entre les différents principes actifs sont testées. Le FIC Index =(CMI crotamiton associé)/(CMI crotamiton seul)+(CMI salicylaldéhyde associé)/(CMI salicylaldéhyde seul) [formula] est calculé.
Les activités antifongiques du crotamiton et du salicylaldéhyde ont été recherchées sur Trichophyton mentagrophytes.
Les concentrations minimales fongistatiques des produits seuls et associés sont présentées ici.
• * Souche • Trichophyton mentagrophytes n° 8611 • * Milieux de culture • Bouillon Sabouraud • Gélose Sabouraud • Eau distillée stérile • * Produits • Crotamiton (Borhinger, lot-209313) • Salicylaldéhyde Prolabo Rectapur encapsulé dans β cyclodextrines = formule aldéhydique
Les solutions-mère aqueuses des produits suivants ont été testées pour leur meilleure solubilité et sans artéfact d'activité antifongique : • Crotamiton : 0,2% dans 10% PEG 200 • Solution aqueuse à 10% aldhéhyde salicylique.
Les essais sont réalisés plusieurs fois car ces produits sont très volatils, rendant la lecture des tests très difficile. […]

With CC=CC(=O)N(CC)c1ccccc1C [Crotamiton, N-éthyl-O crotonotoluidide] the “fois moins de produit pour obtenir le même effet antifongique que les produits utilisés seuls” value (combined versus alone, formule aldéhydique at 10% aldehyde) was 30 fois, the “CMF = Concentrations Minimales Fongistatiques, Seul” value (product alone, T. mentagrophytes calibrated at 10^6 spores per ml) was 0,1% and the “CMF = Concentrations Minimales Fongistatiques, Associés” value (product in the binary combination Crotamiton - Formule aldéhydique, T. mentagrophytes 10^6 spores per ml) was 0,003%.
